The target of the experiment is recombinant CD73 (Homo sapiens (Human), UniProt P21589). Kind of experiment: Assay 2: Inhibition of the CD73 enzyme in vitro (0.05 nM CD73, 1 hour 37° C., Malachite Green). The experiment is classed as biochemical. Conditions: 0.05 nM CD73, 50 μM AMP, 1 hour at 37° C. The protocol:
For measurements of soluble CD73 enzyme activity, recombinant CD73 was obtained from R&D Systems, Cat. No. 5795-EN-010. […] Reactions were allowed to proceed for 1 hour at 37° C. before the addition of 100 μL Malachite Green (Cell Signaling Technology, Cat. No. 12776). After 5 minutes at room temperature, absorbance at 630 nm was determined on a microplate spectrophotometer. The concentration of inorganic phosphate was determined using a phosphate standard curve.
Sequence of recombinant CD73 (P21589 27-547): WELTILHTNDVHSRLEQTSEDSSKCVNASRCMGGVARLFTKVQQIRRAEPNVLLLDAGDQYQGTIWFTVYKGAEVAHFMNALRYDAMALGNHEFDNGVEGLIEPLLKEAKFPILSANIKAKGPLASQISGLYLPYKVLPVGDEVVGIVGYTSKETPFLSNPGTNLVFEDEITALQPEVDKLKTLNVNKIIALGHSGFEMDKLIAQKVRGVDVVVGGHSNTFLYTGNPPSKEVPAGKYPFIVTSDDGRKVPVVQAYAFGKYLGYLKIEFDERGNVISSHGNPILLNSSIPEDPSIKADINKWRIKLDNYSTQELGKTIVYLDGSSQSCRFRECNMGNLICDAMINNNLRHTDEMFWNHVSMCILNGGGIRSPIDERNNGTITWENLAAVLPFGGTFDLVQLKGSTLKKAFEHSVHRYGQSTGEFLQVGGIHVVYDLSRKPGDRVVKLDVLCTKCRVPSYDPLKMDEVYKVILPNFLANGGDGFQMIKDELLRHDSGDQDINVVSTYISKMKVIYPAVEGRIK
As usually defined, the IC50 is the concentration that gives 50% inhibition. Regarding `C#C[C@@]1(O)[C@@H](COC(Cc2ccc(N3CCCN(C)C3=O)cc2)(C(=O)O)C(=O)O)O[C@@H](n2cnc3c(N)nc(Cl)nc32)[C@@H]1O` [Example 149, 2-(((2R,3S,4R,5R)-5-(6-amino-2-chloro-9H-purin-9-yl)-3-ethynyl-3,4-dihydroxytetrahydrofuran-2-yl)methoxy)-2-(4-(3-methyl-2-oxotetrahydropyrimidin-1 (2H)-yl)benzyl)malonic acid], the IC50 was 0.11 nM.
For `C#C[C@@]1(O)[C@@H](COC(Cc2ccccc2)(C(=O)O)C(=O)O)O[C@@H](n2cnc3c(NCc4cccnc4)nc(Cl)nc32)[C@@H]1O` [Example 84, 2-benzyl-2-(((2R,3S,4R,5R)-5-(2-chloro-6-((pyridin-3-ylmethyl)amino)-9H-purin-9-yl)-3-ethynyl-3,4-dihydroxytetrahydrofuran-2-yl)methoxy)malonic acid] the value was 3 nM; for `C#C[C@@]1(O)[C@@H](COC(Cc2ccccc2)(C(=O)O)C(=O)O)O[C@@H](n2cnc3c(NCCCO)nc(Cl)nc32)[C@@H]1O` [Example 34, 2-benzyl-2-(((2R,3S,4R,5R)-5-(2-chloro-6-((3-hydroxypropyl)amino)-9H-purin-9-yl)-3-ethynyl-3,4-dihydroxytetrahydrofuran-2-yl)methoxy)malonic acid], 2 nM; for `C#C[C@@]1(O)[C@@H](COC(Cc2ccccc2)(C(=O)O)C(=O)O)O[C@@H](n2cnc3c(NC[C@H](C)O)nc(Cl)nc32)[C@@H]1O` [Example 36, 2-benzyl-2-(((2R,3S,4R,5R)-5-(2-chloro-6-(((S)-2-hydroxypropyl)amino)-9H-purin-9-yl)-3-ethynyl-3,4-dihydroxytetrahydrofuran-2-yl)methoxy)malonic acid], 4 nM.
Under `C#C[C@@]1(O)[C@@H](COC(Cc2ccccc2)(C(=O)O)C(=O)O)O[C@@H](n2cnc3c(-c4cccs4)nc(Cl)nc32)[C@@H]1O` [Example 18, 2-benzyl-2-(((2R,3S,4R,5R)-5-(2-chloro-6-(thiophen-2-yl)-9H-purin-9-yl)-3-ethynyl-3,4-dihydroxytetrahydrofuran-2-yl)methoxy)malonic acid] stands 0.3 nM.
Under `C#C[C@@]1(O)[C@@H](COC(Cc2ccccc2)(C(=O)O)C(=O)O)O[C@@H](n2cnc3c(N4CC(CO)C4)nc(Cl)nc32)[C@@H]1O` [Example 46, 2-benzyl-2-(((2R,3S,4R,5R)-5-(2-chloro-6-(3-(hydroxymethyl)azetidin-1-yl)-9H-purin-9-yl)-3-ethynyl-3,4-dihydroxytetrahydrofuran-2-yl)methoxy)malonic acid] stands 1 nM; under `C#C[C@@]1(O)[C@@H](COC(Cc2ccccc2)(C(=O)O)C(=O)O)O[C@@H](n2cnc3c(N[C@@H]4CCc5ccccc54)nc(Cl)nc32)[C@@H]1O` [Example 69, 2-benzyl-2-(((2R,3S,4R,5R)-5-(2-chloro-6-(((R)-2,3-dihydro-1H-inden-1-yl)amino)-9H-purin-9-yl)-3-ethynyl-3,4-dihydroxytetrahydrofuran-2-yl)methoxy)-malonic acid], 3 nM; under `C#C[C@@]1(O)[C@@H](COC(Cc2ccc(-c3ccc[nH]c3=O)cc2)(C(=O)O)C(=O)O)O[C@@H](n2cnc3c(N)nc(Cl)nc32)[C@@H]1O` [Example 12, 2-(((2R,3S,4R,5R)-5-(6-amino-2-chloro-9H-purin-9-yl)-3-ethynyl-3,4-dihydroxytetrahydrofuran-2-yl)methoxy)-2-(4-(2-oxo-1,2-dihydropyridin-3-yl)benzyl)malonic acid], 0.1 nM.
Turning to `C#C[C@@]1(O)[C@@H](COC(Cc2ccc(-c3ccc[nH]c3=O)cc2)(C(=O)O)C(=O)O)O[C@@H](n2cnc3c(NC)nc(Cl)nc32)[C@@H]1O` [Example 147, 2-(((2R,3S,4R,5R)-5-(2-chloro-6-(methylamino)-9H-purin-9-yl)-3-ethynyl-3,4-dihydroxytetrahydrofuran-2-yl)methoxy)-2-(4-(2-oxo-1,2-dihydropyridin-3-yl)benzyl)malonic acid], the IC50 was 0.58 nM.
Under `C#C[C@@]1(O)[C@@H](COC(Cc2ccc(N3CCCN(C)C3=O)cc2)(C(=O)O)C(=O)O)O[C@@H](n2cnc3c(NC)nc(Cl)nc32)[C@@H]1O` [Example 148, 2-(((2R,3S,4R,5R)-5-(2-chloro-6-(methylamino)-9H-purin-9-yl)-3-ethynyl-3,4-dihydroxytetrahydrofuran-2-yl)methoxy)-2-(4-(3-methyl-2-oxotetrahydropyrimidin-1 (2H)-yl)benzyl)malonic acid] stands 0.08 nM; under `C#C[C@@]1(O)[C@@H](COC(Cc2ccccc2)(C(=O)O)C(=O)O)O[C@@H](n2cnc3c(-c4ccccc4)nc(Cl)nc32)[C@@H]1O` [Example 14, 2-benzyl-2-(((2R,3S,4R,5R)-5-(2-chloro-6-phenyl-9H-purin-9-yl)-3-ethynyl-3,4-dihydroxytetrahydrofuran-2-yl)methoxy)malonic acid], 0.6 nM.
With `C#C[C@@]1(O)[C@@H](COC(Cc2ccccc2)(C(=O)O)C(=O)OCC)O[C@@H](n2cnc3c(NCc4ccccc4Cl)nc(Cl)nc32)[C@@H]1O` (stereo partly drawn) [Example 108, 2-benzyl-2-(((2R,3S,4R,5R)-5-(2-chloro-6-((2-chlorobenzyl)amino)-9H-purin-9-yl)-3-ethynyl-3,4-dihydroxytetrahydrofuran-2-yl)methoxy)-3-ethoxy-3-oxopropanoic acid], the IC50 is 3 nM.
Under `C#C[C@@]1(O)[C@@H](COC(Cc2ccccc2)(C(=O)O)C(=O)O)O[C@@H](n2cnc3c(N[C@H]4CCc5ccccc54)nc(Cl)nc32)[C@@H]1O` [Example 72, 2-benzyl-2-(((2R,3S,4R,5R)-5-(2-chloro-6-(((S)-2,3-dihydro-1H-inden-1-yl)amino)-9H-purin-9-yl)-3-ethynyl-3,4-dihydroxytetrahydrofuran-2-yl)methoxy)-malonic acid] stands 3 nM; under `C#C[C@@]1(O)[C@@H](COC(CC=C)(C(=O)O)C(=O)O)O[C@@H](n2cnc3c(N)nc(Cl)nc32)[C@@H]1O` [Example 15, 2-allyl-2-(((2R,3S,4R,5R)-5-(6-amino-2-chloro-9H-purin-9-yl)-3-ethynyl-3,4-dihydroxytetrahydrofuran-2-yl)methoxy)malonic acid], 20 nM.
For `C#C[C@@]1(O)[C@@H](COC(Cc2ccc(-c3ccccc3)c(C(=O)O)c2)(C(=O)O)C(=O)O)O[C@@H](n2cnc3c(N)nc(Cl)nc32)[C@@H]1O` [Example 13, 2-(((2R,3S,4R,5R)-5-(6-amino-2-chloro-9H-purin-9-yl)-3-ethynyl-3,4-dihydroxytetrahydrofuran-2-yl)methoxy)-2-((2-carboxy-[1,1′-biphenyl]-4-yl)methyl)malonic acid] the value was 0.3 nM; for `C#C[C@@]1(O)[C@@H](COC(Cc2ccccc2)(C(=O)O)C(=O)O)O[C@@H](n2cnc3c(NCc4ccc(F)cc4)nc(Cl)nc32)[C@@H]1O` [Example 68, 2-benzyl-2-(((2R,3S,4R,5R)-5-(2-chloro-6-((4-fluorobenzyl)amino)-9H-purin-9-yl)-3-ethynyl-3,4-dihydroxytetrahydrofuran-2-yl)methoxy)malonic acid], 0.8 nM.
For `C#C[C@@]1(O)[C@@H](COC(Cc2ccccc2)(C(=O)O)C(=O)O)O[C@@H](n2cnc3c(NO)nc(Cl)nc32)[C@@H]1O` [Example 168, 2-benzyl-2-(((2R,3S,4R,5R)-5-(2-chloro-6-(hydroxyamino)-9H-purin-9-yl)-3-ethynyl-3,4-dihydroxytetrahydrofuran-2-yl)methoxy)malonic acid] the value was 14 nM; for `C#C[C@@]1(O)[C@@H](COC(Cc2nc3ccccc3s2)(C(=O)O)C(=O)O)O[C@@H](n2cnc3c(NCc4ccc(F)cc4)nc(Cl)nc32)[C@@H]1O` [Example 112, 2-(benzo[d]thiazol-2-ylmethyl)-2-(((2R,3S,4R,5R)-5-(2-chloro-6-((4-fluorobenzyl)amino)-9H-purin-9-yl)-3-ethynyl-3,4-dihydroxytetrahydrofuran-2-yl)methoxy)malonic acid], 1360 nM.
For `C#C[C@@]1(O)[C@@H](COC(Cc2ccccc2)(C(=O)O)C(=O)O)O[C@@H](n2cnc3c(NCC4(O)CCC4)nc(Cl)nc32)[C@@H]1O` [Example 40, 2-benzyl-2-(((2R,3S,4R,5R)-5-(2-chloro-6-(((1-hydroxycyclobutyl)-methyl)amino)-9H-purin-9-yl)-3-ethynyl-3,4-dihydroxytetrahydrofuran-2-yl)methoxy)malonic acid], the concentration for half-maximal inhibition (IC50) was determined as 3 nM.
For `CC#C[C@@]1(O)[C@@H](COC(Cc2ccccc2)(C(=O)O)C(=O)O)O[C@@H](n2cnc3c(N)nc(Cl)nc32)[C@@H]1O` [Compound 3, 2-(((2R,3S,4R,5R)-5-(6-amino-2-chloro-9H-purin-9-yl)-3,4-dihydroxy-3-(prop-1-yn-1-yl)tetrahydrofuran-2-yl)methoxy)-2-benzylmalonic acid] the value was 1 nM; for `C#C[C@@]1(O)[C@@H](COC(Cc2ccc(N3CCCNC3=O)cc2)(C(=O)O)C(=O)O)O[C@@H](n2cnc3c(NC)nc(Cl)nc32)[C@@H]1O` [Example 141, 2-(((2R,3S,4R,5R)-5-(2-chloro-6-(methylamino)-9H-purin-9-yl)-3-ethynyl-3,4-dihydroxytetrahydrofuran-2-yl)methoxy)-2-(4-(2-oxotetrahydropyrimidin-1 (2H)-yl)benzyl)malonic acid], 0.23 nM; for `C#C[C@@]1(O)[C@@H](COC(C(=O)O)C(=O)O)O[C@@H](n2cnc3c(NC)nc(Cl)nc32)[C@@H]1O` [Example 117, 2-(((2R,3S,4R,5R)-5-(2-chloro-6-(methylamino)-9H-purin-9-yl)-3-ethynyl-3,4-dihydroxytetrahydrofuran-2-yl)methoxy)malonic acid], 58 nM.

These data come from patent US11078228B2, “Ectonucleotidase inhibitors and methods of use thereof” (Calithera Biosciences, Inc., priority 2018, dated 2021).
